The values below come from US5045566A, “Novel imidate insecticides” (ICI Americas Inc., priority 1989, dated 1991).

What all share (format): in vivo
Experiment [1] concerns Housefly [Musca domestica]. As to the kind of experiment: Housefly contact mortality in dishes (HF), 48 hours. The note with it: μg of test compound per 25 female flies. Here is the method: (§1) The compounds in Tables 1 and 2 above were tested for insecticidal activity using the following testing procedures. LC50 values, based on the results of these tests and calculated according to dosage-mortality curves, are expressed in Table 3.
Housefly [Musca domestica]:
Test compounds were diluted in acetone and aliquots pipetted onto the bottom of aluminum dishes. To ensure even spreading of the chemical on the bottom of the dishes, 1 ml of acetone containing 0.01% peanut oil was also added to each dish. After all solvents had evaporated, the dishes were placed in circular cardboard cages containing 25 female houseflies, 1-2 days old. The cages were covered on the bottom with cellophane and on the top with tulle netting, and each contained a sugar-water saturated cotton plug for maintenance of the flies. Mortality was recorded after 48 hours. Test levels ranged from 100 μg/25 female houseflies downward. The LC-50 value is expressed below in Table 3 under the heading "HF", in terms of μg of the test compound per 25 female flies.

For experiment [2], the system named is Black Bean Aphid [Aphis fabae (Scop.)]. Put plainly: Black bean aphid spray test on nasturtium (BBA), 48 hours. The note with it: percent of test compound in sprayed solution. Here is the method: as §1
Black Bean Aphid [Aphis fabae (Scop.)]:
Nasturtium plants (Tropaeolum sp.) approximately 5 cm tall, were transplanted into sandy loam soil in small cups and infested with 25-50 black bean aphids of mixed ages. Twenty-four hours later they were sprayed to the point of runoff with 50-50 acetone-water solutions of the test compounds. Treated plants were held in the greenhouse and mortality was recorded after 48 hours. Test concentrations ranged from 0.05% downward. The LC-50 value is expressed below in Table 3 under the heading "BBA" in terms of percent of the test compound in the sprayed solution.

Experiment [3] deals with Tobacco Budworm [Heliothis virescens (Fabricius)] eggs. Put plainly: Tobacco budworm eggs (TBW-E). The note with it: percent in solution; 2-day old eggs. Here is the method:
as §1
Tobacco Budworm [Heliothis virescens (Fabricius)]:
(b). Eggs: Paper towel patches of 2-day old eggs of the tobacco budworm were dipped in acetone solutions of the test compound and placed in petri dishes containing a portion of larval rearing medium. Treated eggs were maintained at 78° F. and mortality was recorded after all control eggs had hatched and the young larvae were feeding on the media. Test concentrations ranged from 0.1% downward. The LC-50 value is expressed below in Table 3 under the heading "TBW-E" in terms of percent of the test compound in the solution.

In experiment [4] the test system is Cabbage Looper [Trichoplusia ni (Hubner)]. As to the kind of experiment: Cabbage looper leaf dip (CL), 3-5 days. The note with it: percent in solution, second-instar larvae. On the procedure:
as §1
Cabbage Looper [Trichoplusia ni (Hubner)]:
Test compounds were diluted in a 50-50 acetone-water solution. Cotyledons of hyzini squash (Calabacita abobrinha), approximately 1×1.5 inches, were immersed in the test solutions for 2-3 seconds and placed on a wire screen to dry. The dried leaves were placed in petri dishes containing a moistened piece of filter paper and infested with 5 second-instar cabbage looper larvae. The dishes were placed in a high humidity chamber. Mortality of the larvae was recorded 3-5 days later. Test concentrations ranged from 0.1% downward. The LC-50 value is expressed below in Table 3 under the heading "CL" in terms of percent of the test compound in solution.

Each structure is given as a SMILES string.

`CC(C)C(=Nc1c(F)c(F)c(F)c(F)c1F)OCc1cccc(Oc2ccc(F)cc2F)c1` [Compound 232]: the “LC50 HF” value in experiment [1] is > 100 µg. For the same molecule, the “LC50 BBA” value in experiment [2] is recorded as > 0.05%. Further, the “LC50 TBW E (eggs)” value in experiment [3] is given as > 0.1%. In addition, in experiment [4], the “LC50 CL” value turned out to be 0.004%.
In the same order, the values of `CC(C)C(=Nc1cccc(C(F)(F)F)c1)OCc1cccc(Oc2ccncc2)c1` [Compound 469] are 40 µg, > 0.05%, > 0.1% and 0.02%.
As for `Cc1ccc(N=C(OCc2cccc(Oc3ccccc3)c2)C(C)(C)C)cc1Cl` [Compound 107], the “LC50 HF” value in experiment [1] is > 100 µg. Also, the “LC50 BBA” value in experiment [2] is listed as 0.01%. Also, in experiment [3], the “LC50 TBW E (eggs)” value is listed as > 0.1%. Moreover, in experiment [4], the “LC50 CL” value is recorded as 0.007%.
For `Cc1c(COC(=Nc2ccc(Cl)cc2)C(C)C)cccc1-c1ccccc1` [Compound 455], the “LC50 HF” value in experiment [1] is > 100 µg. Besides, in experiment [2], the “LC50 BBA” value is recorded as 0.01%. For the same molecule, the “LC50 TBW E (eggs)” value in experiment [3] is on record as > 0.1%. The “LC50 CL” value in experiment [4] stood at 0.0025%.
For the molecule `CC(C)C(=Nc1ccc(Br)cc1F)OCc1cccc(Oc2ccccc2)c1` [Compound 79], the “LC50 HF” value in experiment [1] was determined as 6 µg. Moreover, in experiment [2], the “LC50 BBA” value stood at 0.03%. Besides, the “LC50 TBW E (eggs)” value in experiment [3] is 0.05%. Moreover, the “LC50 CL” value in experiment [4] is 0.003%.
The matching figures for `CC(C)C(=Nc1cccc(C(F)(F)F)c1)OC(C)c1cccc(Oc2ccccc2)n1` (stereo not drawn) [Compound 499]: 63 µg, > 0.05%, > 0.1% and 0.0024%.
Turning to `Cc1ccc(Oc2cccc(COC(=Nc3ccc(F)cc3)C(C)C)c2)cc1` [Compound 231], the “LC50 HF” value in experiment [1] is > 100 µg. In addition, in experiment [2], the “LC50 BBA” value is 0.01%. Also, the “LC50 TBW E (eggs)” value in experiment [3] is recorded as > 0.1%. Also, in experiment [4], the “LC50 CL” value amounted to 0.003%.
The matching figures for `CC(C)C(=Nc1ccc(F)c(Cl)c1)OCc1cc(F)cc(Oc2ccc(F)cc2)c1` [Compound 327]: > 100 µg, > 0.05%, > 0.1% and 0.005%.
With `CC(C)C(=Nc1ccc(F)c(Cl)c1)OCc1cccc(Oc2ccncc2)c1` [Compound 470], the “LC50 HF” value in experiment [1] is 25 µg. Besides, the “LC50 BBA” value in experiment [2] is > 0.05%. For the same molecule, in experiment [3], the “LC50 TBW E (eggs)” value was > 0.1%. In addition, the “LC50 CL” value in experiment [4] worked out at 0.02%.
In the case of `CCC(C)C(=Nc1ccc(F)c(Cl)c1)OCc1ccc(F)c(Oc2ccccc2)c1` (stereo not drawn) [Compound 261], the “LC50 HF” value in experiment [1] worked out at 24 µg. Further, in experiment [2], the “LC50 BBA” value is 0.002%. The “LC50 TBW E (eggs)” value in experiment [3] is on record as 0.05%. Moreover, the “LC50 CL” value in experiment [4] was found to be 0.001%.
The matching figures for `Cc1ccc(C)c(N=C(OCc2cccc(Oc3ccccc3)c2)C(C)C)c1` [Compound 250]: 38 µg, 0.0006%, 0.038% and 0.004%.
Turning to `CC(C)(C)C(=Nc1cccc(Br)c1)OCc1cccc(Oc2ccccc2)c1` [Compound 134], the “LC50 HF” value in experiment [1] is > 100 µg. The “LC50 BBA” value in experiment [2] is > 0.05%. Also, the “LC50 TBW E (eggs)” value in experiment [3] is listed as > 0.1%. For the same molecule, the “LC50 CL” value in experiment [4] was 0.015%.
`Cc1ccc(N=C(OCc2cccc(Oc3ccccc3)c2)C(C)(C)C)cc1C` [Compound 167]: in experiment [1], the “LC50 HF” value is > 100 µg. Moreover, in experiment [2], the “LC50 BBA” value is reported as > 0.05%. Besides, in experiment [3], the “LC50 TBW E (eggs)” value is listed as > 0.1%. The “LC50 CL” value in experiment [4] was found to be 0.02%.
In the same order, the values of `CC(C)(Cl)C(=Nc1ccc(Cl)c2ccccc12)OCc1cccc(Oc2ccccc2)c1` [Compound 111] are > 100 µg, 0.003%, > 0.1% and 0.1%.
For the molecule `Cc1cccc(N=C(OCc2cccc(Oc3ccccc3)c2)C(C)C)c1C` [Compound 148], the “LC50 HF” value in experiment [1] stood at 18 µg. Besides, in experiment [2], the “LC50 BBA” value came to 0.0003%. Moreover, the “LC50 TBW E (eggs)” value in experiment [3] was 0.025%. The “LC50 CL” value in experiment [4] is reported as 0.0025%.
